Measurements reported in patent publication US20240156825A1, “USE OF SELECTIVE VEGFR2 AND FGFR1 INHIBITORS” (Fountain Therapeutics Inc., priority 2022, published 2024).
Read-outs that look alike come from different tables or passages of the source.

Experiments:
VEGFR2 and FGFR1 = experiment: Selection of compounds that selectively inhibit both VEGFR2 and FGFR1 (average relative IC50); type: biochemical
VEGFR2 [1] = molecular target: T1, VEGFR2 (Homo sapiens, UniProt P35968); conditions: relative IC50: reported IC50 toward VEGFR2 divided by next lowest reported IC50 to any gene target
any gene target = conditions: cited from earlier work
VEGFR2 [2] = molecular target: T1, VEGFR2; conditions: reported IC50 to VEGFR2; Table 3, selective inhibitors of VEGFR2; read-out: VEGFR2 IC50_μM; cited from earlier work
[3] = average of VEGFR2 and FGFR1 relative IC50
[4] = lowest reported IC50 to any gene target, read-out: min IC50
[5] = lowest reported IC50 to any gene target, read-out: Min IC50_μM

T1 sequence (P35968 20-1356, species assumed): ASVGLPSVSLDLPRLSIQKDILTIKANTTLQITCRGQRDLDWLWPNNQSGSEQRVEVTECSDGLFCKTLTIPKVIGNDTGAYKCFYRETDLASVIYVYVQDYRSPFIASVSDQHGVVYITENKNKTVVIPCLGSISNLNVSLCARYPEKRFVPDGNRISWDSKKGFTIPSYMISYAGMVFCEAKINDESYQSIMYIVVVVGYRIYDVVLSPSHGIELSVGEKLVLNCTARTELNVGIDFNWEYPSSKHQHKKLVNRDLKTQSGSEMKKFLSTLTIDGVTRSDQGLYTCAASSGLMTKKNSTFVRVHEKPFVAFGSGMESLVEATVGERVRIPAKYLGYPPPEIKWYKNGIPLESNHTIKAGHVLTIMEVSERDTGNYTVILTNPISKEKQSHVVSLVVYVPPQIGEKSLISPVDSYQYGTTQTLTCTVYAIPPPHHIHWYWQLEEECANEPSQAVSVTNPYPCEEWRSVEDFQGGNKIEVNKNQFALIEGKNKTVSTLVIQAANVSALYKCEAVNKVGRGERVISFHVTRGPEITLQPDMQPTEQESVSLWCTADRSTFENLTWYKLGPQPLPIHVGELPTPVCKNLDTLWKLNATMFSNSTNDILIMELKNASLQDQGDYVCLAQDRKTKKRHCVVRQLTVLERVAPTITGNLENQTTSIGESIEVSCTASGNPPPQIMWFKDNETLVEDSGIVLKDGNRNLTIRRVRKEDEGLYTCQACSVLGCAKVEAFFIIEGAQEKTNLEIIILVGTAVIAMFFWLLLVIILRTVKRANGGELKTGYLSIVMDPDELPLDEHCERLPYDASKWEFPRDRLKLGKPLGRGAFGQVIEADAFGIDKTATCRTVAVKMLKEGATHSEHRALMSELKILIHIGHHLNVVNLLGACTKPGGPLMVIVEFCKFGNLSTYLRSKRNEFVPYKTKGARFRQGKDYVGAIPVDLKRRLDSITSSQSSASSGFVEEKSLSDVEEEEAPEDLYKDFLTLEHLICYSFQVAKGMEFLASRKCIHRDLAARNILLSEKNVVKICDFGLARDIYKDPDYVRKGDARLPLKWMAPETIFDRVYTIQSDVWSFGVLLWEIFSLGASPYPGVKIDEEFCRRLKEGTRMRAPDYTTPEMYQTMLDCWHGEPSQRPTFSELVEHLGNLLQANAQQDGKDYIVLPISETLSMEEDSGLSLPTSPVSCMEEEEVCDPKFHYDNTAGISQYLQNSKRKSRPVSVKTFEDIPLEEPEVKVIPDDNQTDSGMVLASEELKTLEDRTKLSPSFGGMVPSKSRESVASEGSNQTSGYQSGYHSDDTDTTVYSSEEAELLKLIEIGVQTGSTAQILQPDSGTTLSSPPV

Compound	avg rIC50 (VEGFR2 and FGFR1; [3])	further results
CCNC(=O)Nc1nc2nc(NCCCCN(CC)CC)ncc2cc1-c1cc(OC)cc(OC)c1 [compound 5330168, Pyrido[2,3-d]pyrimidine 104, reference compound]	3.4	–
COc1cc(OC)cc(-c2cc3cnc(NCCCN4CCN(C)CC4)nc3nc2NC(=O)NC(C)(C)C)c1 [compound 5330167, Pyrido[2,3-d]pyrimidine 103, reference compound]	2.3	–
Oc1cc2c(cc1O)C1c3ccc(O)c(O)c3OCC1(O)C2 (stereo not shown) [compound 442514, Haematoxylin]	–	avg rIC50 (VEGFR2 and FGFR1): 5.5; VEGFR2, rIC50 (VEGFR2 [1]): 9.5
COc1cc(OC)cc(-c2cc3cnc(NCCCN4CCN(C)CC4)cc3nc2NC(=O)NC(C)(C)C)c1 [compound 5330127, 1,6-Naphthyridine 17, reference compound]	3.0	–
CCNC(=O)Nc1nc2nc(NCCCN3CCN(C)CC3)ncc2cc1-c1cc(OC)cc(OC)c1 [compound 5330166, Pyrido[2,3-d]pyrimidine 102, reference compound]	2.6	–
Oc1ccc(C[C@@]2(O)COc3c(ccc(O)c3O)[C@H]2O)cc1O [compound 24949852, Epihematoxylol]	–	avg rIC50 (VEGFR2 and FGFR1): 3.7; VEGFR2, rIC50 (VEGFR2 [1]): 5.8
CCN1CCC(Nc2ccc3c(c2)/C(=C(\c2cccc(F)c2)c2nc(C)c[nH]2)C(=O)N3)CC1 [compound 67163677, XL999; XL-999; XL 999, reference compound]	2.0	IC50 (any gene target; [4]): 2 nM
COc1cc(OC)cc(-c2cc3cnc(NCCCO)cc3nc2NC(=O)NC(C)(C)C)c1 [compound 5330157, 1,6-Naphthyridine 75, reference compound]	1.4	–
COc1cc(OC)cc(-c2cc3cnc(NCCCN4CCOCC4)cc3nc2NC(=O)NC(C)(C)C)c1 [compound 5329004, 1,6-Naphthyridine deriv. 20, reference compound]	5.0	–
COc1cc(OC)cc(-c2cc3cnc(NCCCCN4CCN(C)CC4)cc3nc2NC(=O)NC(C)(C)C)c1 [compound 5330130, reference compound]	4.3	IC50 (any gene target; [5]): 0.4 nM
CCN(CC)CCCNc1cc2nc(NC(=O)NC(C)(C)C)c(-c3cc(OC)cc(OC)c3)cc2cn1 [compound 5330128, 1,6-Naphthyridine 18, reference compound]	4.3	–
COc1cc(OC)cc(-c2cc3cnc(NCCCO)nc3nc2NC(=O)NC(C)(C)C)c1 [compound 5330169, Pyrido[2,3-d]pyrimidine 105, reference compound]	2.3	–
COc1cc(OC)cc(-c2cc3cnc(NCCCCCO)cc3nc2NC(=O)NC(C)(C)C)c1 [compound 5330159, 1,6-Naphthyridine 77, reference compound]	1.5	–
CONC(=O)c1cc(Nc2ncnn3cc(-c4ncc(C)o4)c(C(C)C)c23)c(F)cc1F [compound 10388612, 2,4-Difluoro-5-[5-isopropyl-6-(5-methyl-oxazol-2-yl)-pyrrolo[2,1-f][1,2,4]triazin-4-ylamino]-N-methoxy-benzamide, reference compound]	–	VEGFR2, rIC50 (VEGFR2 [1]): 1.0; IC50 (VEGFR2 [2]): 1.1 nM; IC50 (any gene target; [4]): 1 nM; IC50 (any gene target; next lowest IC50 value to any gene target, Table 3, read-out: Min IC50_μM): 1.1 nM
COc1cc(OC)cc(-c2cc3cnc(NCCCCCN4CCN(C)CC4)cc3nc2NC(=O)NC(C)(C)C)c1 [compound 5330135, 1,6-Naphthyridine 25, reference compound]	1.8	IC50 (any gene target; [5]): 3 nM; IC50 (any gene target; [4]): 3 nM
CNC(=O)c1cc(F)cc(N(CCNC(C)C)c2ccc3ncc(-c4cnn(C)c4)nc3c2)c1 [compound 68209105, reference compound]	2.8	IC50 (any gene target; Table 2, lowest reported IC50 to any gene target, read-out: Min IC50_μM): 3.16 nM; IC50 (any gene target; [4]): 2 nM
COc1cc(OC)cc(-c2cc3cnc(NCCCCN4CCOCC4)cc3nc2NC(=O)NC(C)(C)C)c1 [compound 5330129, 1,6-Naphthyridine 19, reference compound]	1.5	–
